# Measurements taken from article PMC12753884, “Naringenin targets FimZ to regulate type I fimbriae and reduce the virulence of Salmonella” (Frontiers in Cellular and Infection Microbiology, 2025).
# Assays:
# Type in all cases: binding
# [1] = target: T1, FimZ (Salmonella enterica, UniProt P26319, I135A); experiment: SPR (Biacore X100, His-antibody capture on CM5 chip)
# T1 construct: Flag-FimZ-His mutant
# T1 sequence (P26319 1-210 I135A): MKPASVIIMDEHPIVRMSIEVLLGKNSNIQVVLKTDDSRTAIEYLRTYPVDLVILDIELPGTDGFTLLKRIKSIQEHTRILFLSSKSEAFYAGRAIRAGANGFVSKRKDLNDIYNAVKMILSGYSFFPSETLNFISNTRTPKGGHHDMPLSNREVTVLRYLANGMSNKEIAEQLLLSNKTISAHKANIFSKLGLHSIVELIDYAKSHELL
# [2] = target: T2, FimZ (Salmonella enterica, UniProt P26319); experiment: SPR (Biacore X100, His-antibody capture on CM5 chip); EMSA support
# T2 construct: Flag-FimZ-His, whole fimZ fragment of SL1344 in pET-28a
# [3] = target: T3, FimZ (Salmonella enterica, UniProt P26319, T138A); experiment: SPR (Biacore X100, His-antibody capture on CM5 chip)
# T3 construct: Flag-FimZ-His mutant
# T3 sequence (P26319 1-210 T138A): T1 sequence (P26319 1-210 I135A)
structure (smiles),measurement,setting,value
"O=C1C[C@@H](c2ccc(O)cc2)Oc2cc(O)cc(O)c21 [Nar, naringenin]",Kd,[1],152 µM
same,Kd,[2],33.9 µM
same,Kd,[3],412 µM
